System: BEAS-2B epithelium
Assay: Drug toxicity test in bronchiolar device (LDH release)
Type: cell-based
Details: 0.1, 1.0 and 10 μM in BEGM medium, recirculating 10 μL/min, 48 hours, bronchiolar device of FIG. 27; FIG. 95A
Experimental: FIGS. 95A-95D show drug toxicity results obtained from using a bronchiolar device embodiment described herein; FIG. 95A is a graph of camptothecin concentration (μM) vs. cytotoxicity (% LDH release) illustrating the cytotoxicity of camptothecin as measured after having passed through the bronchiolar device; […] show images of fluorescent microbead deposition on a central lumen associated with cells.
Drug toxicity was tested using a bronchiolar device as described herein. A pro-apoptotic anti-cancer drug, camptothecin, was chosen to monitor drug toxicity in the bronchiolar device illustrated in FIG. 27. Different concentrations of camptothecin (0.1, 1.0 and 10 μM) were prepared by diluting the original stock solution (2 mg/mL in DMSO) with BEGM culturing medium. After the lumen of a hollow tube of the device was covered with BEAS-2B epithelium, medium in the medium reservoir (which was connected to a maintaining system) was replaced with individual concentrations of the camptothecin medium solution to allow the circulating flow into medium chamber of device. The tubing connected to hollow tube was closed and the recirculating flow rate was set to 10 μL/min to allow camptothecin to diffuse into the bronchiolar epithelium for 48 hours.

## CC[C@@]1(O)C(=O)OCc2c1cc1n(c2=O)Cc2cc3ccccc3nc2-1 [camptothecin]
  cytotoxicity (% LDH release) versus camptothecin concentration: drug dose dependence was observed
